Assay results reported in ChEMBL document CHEMBL5149982, “Development of Potent NEDD8-Activating Enzyme Inhibitors Bearing a Pyrimidotriazole Scaffold” (J Med Chem, 2021).

Legend:
NEDD8 activating enzyme [1] = target: T1, NEDD8 activating enzyme (Homo sapiens, UniProt Q8TBC4); experiment: Inhibition of NAE (unknown origin) mediated neddylation assessed as decrease in NEDD8-Ubcl2 adduct formation incubated for 2 hrs in presence of L-glutathione and ATP by HTRF assay; format: protein-complex assay
T1 sequence (Q8TBC4 whole entry): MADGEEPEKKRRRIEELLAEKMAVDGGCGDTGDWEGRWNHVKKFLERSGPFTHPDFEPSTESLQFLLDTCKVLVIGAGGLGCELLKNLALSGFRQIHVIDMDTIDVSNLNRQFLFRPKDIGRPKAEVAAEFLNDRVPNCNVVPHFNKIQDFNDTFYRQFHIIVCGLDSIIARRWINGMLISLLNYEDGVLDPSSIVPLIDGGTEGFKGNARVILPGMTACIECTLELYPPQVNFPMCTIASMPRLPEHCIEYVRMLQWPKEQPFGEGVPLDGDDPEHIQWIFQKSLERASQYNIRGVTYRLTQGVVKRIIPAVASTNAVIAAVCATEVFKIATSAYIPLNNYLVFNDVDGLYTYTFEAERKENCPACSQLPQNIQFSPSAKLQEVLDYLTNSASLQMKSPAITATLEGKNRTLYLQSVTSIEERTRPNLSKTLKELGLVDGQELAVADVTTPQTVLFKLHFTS
T1 sequence (Q13564 whole entry): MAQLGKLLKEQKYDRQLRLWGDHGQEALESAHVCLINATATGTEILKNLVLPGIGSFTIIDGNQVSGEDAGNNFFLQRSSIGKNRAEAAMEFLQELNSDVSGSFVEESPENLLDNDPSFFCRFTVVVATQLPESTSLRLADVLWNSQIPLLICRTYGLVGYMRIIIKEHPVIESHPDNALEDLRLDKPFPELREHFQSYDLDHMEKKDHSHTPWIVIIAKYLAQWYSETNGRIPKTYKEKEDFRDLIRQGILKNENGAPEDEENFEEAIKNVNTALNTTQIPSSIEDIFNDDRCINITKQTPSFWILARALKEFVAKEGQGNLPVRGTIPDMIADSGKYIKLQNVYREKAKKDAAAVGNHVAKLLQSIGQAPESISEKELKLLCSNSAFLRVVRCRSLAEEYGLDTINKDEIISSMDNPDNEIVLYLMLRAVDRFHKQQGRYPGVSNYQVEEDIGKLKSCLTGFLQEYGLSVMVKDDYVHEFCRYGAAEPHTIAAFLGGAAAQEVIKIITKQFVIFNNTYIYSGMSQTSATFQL

HCT-116 = experiment: Antiproliferative activity against human HCT-116 cells assessed as cell growth inhibition by sulforhodamine B assay; format: functional, cell-based
[2] = target: Voltage-gated inwardly rectifying potassium channel KCNH2 (Homo sapiens, UniProt Q12809); experiment: Inhibition of hERG channel; format: toxicity
NEDD8 activating enzyme [3] = target: T1, NEDD8 activating enzyme; experiment: Inhibition of NAE (unknown origin); format: protein-complex assay
NEDD8 activating enzyme [4] = target: T1, NEDD8 activating enzyme; experiment: Inhibition of NAE in human HCT-116 cells incubated for 1 hr by Western blot analysis; format: cell-based

Voltage-gated inwardly rectifying potassium channel KCNH2, sequence (Q12809 whole entry): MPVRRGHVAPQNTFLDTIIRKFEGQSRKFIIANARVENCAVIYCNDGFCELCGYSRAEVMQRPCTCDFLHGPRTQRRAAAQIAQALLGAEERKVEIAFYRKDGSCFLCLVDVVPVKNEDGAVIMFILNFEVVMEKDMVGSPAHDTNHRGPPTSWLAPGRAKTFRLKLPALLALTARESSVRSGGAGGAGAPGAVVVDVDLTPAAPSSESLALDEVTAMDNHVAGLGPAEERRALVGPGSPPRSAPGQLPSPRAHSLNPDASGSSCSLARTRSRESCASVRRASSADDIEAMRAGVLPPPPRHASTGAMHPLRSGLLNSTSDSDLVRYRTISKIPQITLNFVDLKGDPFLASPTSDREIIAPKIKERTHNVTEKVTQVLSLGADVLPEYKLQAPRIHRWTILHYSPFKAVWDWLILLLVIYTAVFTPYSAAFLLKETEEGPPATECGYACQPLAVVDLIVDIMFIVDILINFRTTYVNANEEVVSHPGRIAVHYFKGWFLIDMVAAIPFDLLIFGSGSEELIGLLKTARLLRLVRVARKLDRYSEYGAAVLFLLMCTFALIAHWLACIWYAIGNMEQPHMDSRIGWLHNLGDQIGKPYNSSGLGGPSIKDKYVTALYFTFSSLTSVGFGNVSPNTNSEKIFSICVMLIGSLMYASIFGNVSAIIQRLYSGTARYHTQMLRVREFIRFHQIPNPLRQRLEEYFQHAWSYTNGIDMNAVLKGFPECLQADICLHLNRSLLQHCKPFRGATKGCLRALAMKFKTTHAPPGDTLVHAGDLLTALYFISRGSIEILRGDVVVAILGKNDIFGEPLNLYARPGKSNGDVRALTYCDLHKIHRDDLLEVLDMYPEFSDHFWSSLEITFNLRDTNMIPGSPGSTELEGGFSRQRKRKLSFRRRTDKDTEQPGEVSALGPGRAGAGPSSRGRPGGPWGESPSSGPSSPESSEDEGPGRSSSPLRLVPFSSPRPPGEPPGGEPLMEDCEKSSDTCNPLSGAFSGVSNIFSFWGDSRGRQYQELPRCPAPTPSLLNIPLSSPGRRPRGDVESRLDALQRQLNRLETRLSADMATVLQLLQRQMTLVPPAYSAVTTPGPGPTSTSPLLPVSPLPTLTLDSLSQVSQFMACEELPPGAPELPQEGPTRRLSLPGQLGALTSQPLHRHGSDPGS

| Compound | IC50 (NEDD8 activating enzyme [1]) [nM] | IC50 (HCT-116) [nM] | other results |
| --- | --- | --- | --- |
| CC(C)OC(=O)N1CCC2(CC1)C[C@H](Nc1ncnc3c1nnn3[C@@H]1C[C@@H](COS(N)(=O)=O)[C@@H](O)C1)c1ccccc12 | 4.2 | 121 |  |
| NS(=O)(=O)OC[C@@H]1C[C@@H](n2nnc3c(Nn4ccc5ccccc54)ncnc32)C[C@@H]1O | > 10000 |  |  |
| COC(=O)[C@H]1C=C[C@@H](Nc2ncnc3c2nnn3[C@@H]2C[C@@H](COS(N)(=O)=O)[C@@H](O)C2)C1 | 80.9 |  |  |
| NS(=O)(=O)OC[C@@H]1C[C@@H](n2nnc3c(Nc4cnc5ccccn45)ncnc32)C[C@@H]1O | > 10000 |  |  |
| NS(=O)(=O)OC[C@@H]1C[C@@H](n2nnc3c(N[C@H]4CC5(CCN(C(=O)OC(CO)CO)CC5)c5ccccc54)ncnc32)C[C@@H]1O | 120 |  |  |
| NS(=O)(=O)OC[C@@H]1C[C@@H](n2nnc3c(NCc4cccs4)ncnc32)C[C@@H]1O | 15.9 | > 10000 |  |
| NS(=O)(=O)OC[C@@H]1C[C@@H](n2nnc3c(N[C@H]4CC5(CCN(C(=O)OCCF)CC5)c5ccccc54)ncnc32)C[C@@H]1O | 6 | 104 |  |
| NS(=O)(=O)OC[C@@H]1C[C@@H](n2nnc3c(N[C@H]4CCc5ccccc54)ncnc32)C[C@@H]1O | 0.21 | 43.2 | IC50 [2]: > 40 µM |
| NS(=O)(=O)OC[C@@H]1C[C@@H](n2ncc3c(N[C@H]4CCc5ccccc54)ccnc32)C[C@@H]1O | > 10000 |  |  |
| NS(=O)(=O)OC[C@@H]1C[C@@H](n2nnc3c(N[C@H]4CC5(CCN(C(=O)OCCN6CCOCC6)CC5)c5ccccc54)ncnc32)C[C@@H]1O | 9.98 | 338 |  |
| COCC(=O)N[C@H]1Cc2ccccc2[C@H]1Nc1ncnc2c1nnn2[C@@H]1C[C@@H](COS(N)(=O)=O)[C@@H](O)C1 | 170 |  |  |
| NS(=O)(=O)OC[C@@H]1C[C@@H](n2nnc3c(N[C@H]4CC5(CCN(C(=O)OC(C(F)(F)F)C(F)(F)F)CC5)c5ccccc54)ncnc32)C[C@@H]1O | 21.1 |  |  |
| CCCCCCNc1ncnc2c1nnn2[C@@H]1C[C@@H](COS(N)(=O)=O)[C@@H](O)C1 | 21.1 |  |  |
| COCC(=O)N1CCC2(CC1)C[C@H](Nc1ncnc3c1nnn3[C@@H]1C[C@@H](COS(N)(=O)=O)[C@@H](O)C1)c1ccccc12 | 5.77 | 1420 |  |
| CC(C)(C)NC(=O)N1CCC2(CC1)C[C@H](Nc1ncnc3c1nnn3[C@@H]1C[C@@H](COS(N)(=O)=O)[C@@H](O)C1)c1ccccc12 | 0.02 | 151 |  |
| NS(=O)(=O)OC[C@H]1O[C@@H](n2cnc3c(N[C@H]4CCc5ccccc54)ncnc32)[C@H](O)[C@@H]1O |  |  | IC50 (NEDD8 activating enzyme [3]): 10 nM |
| CCOc1cccc(F)c1C#Cc1cn([C@@H]2O[C@H](COS(N)(=O)=O)[C@@H](O)[C@H]2O)c2ncnc(N)c12 |  |  | IC50 (NEDD8 activating enzyme [3]): 1 nM; IC50 (NEDD8 activating enzyme [4]): 8 nM |

| Compound | IC50 (NEDD8 activating enzyme [1]) [nM] | IC50 (HCT-116) [nM] | other results |
| --- | --- | --- | --- |
| CN1CCC2(CC1)C[C@H](Nc1ncnc3c1nnn3[C@@H]1C[C@@H](COS(N)(=O)=O)[C@@H](O)C1)c1ccccc12 | 187 |  |  |
| NS(=O)(=O)OC[C@@H]1C[C@@H](n2nnc3c(Nc4n[nH]c5ccccc45)ncnc32)C[C@@H]1O | > 10000 |  |  |
| COCCO[C@H]1Cc2ccccc2[C@H]1Nc1ncnc2c1nnn2[C@@H]1C[C@@H](COS(N)(=O)=O)[C@@H](O)C1 | 3.56 | 70.2 |  |
| CC(C)(C)OC(=O)N1CCC2(CC1)C[C@H](Nc1ncnc3c1nnn3[C@@H]1C[C@@H](COS(N)(=O)=O)[C@@H](O)C1)c1ccccc12 | 9.76 | 94.4 | IC50 [2]: > 40 µM |
| COCC(=O)N[C@@H]1Cc2ccccc2[C@H]1Nc1ncnc2c1nnn2[C@@H]1C[C@@H](COS(N)(=O)=O)[C@@H](O)C1 | > 10000 |  |  |
| NS(=O)(=O)OC[C@@H]1C[C@@H](n2nnc3c(NCCc4cccs4)ncnc32)C[C@@H]1O | 107 |  |  |
| NS(=O)(=O)OC[C@@H]1C[C@@H](n2nnc3c(N[C@@H]4c5ccccc5C[C@@H]4O)ncnc32)C[C@@H]1O | 2.28 | 38.8 | IC50 [2]: > 40 µM |
| CCOC(=O)N1CCC2(CC1)C[C@H](Nc1ncnc3c1nnn3[C@@H]1C[C@@H](COS(N)(=O)=O)[C@@H](O)C1)c1ccccc12 | 2.23 | 102 |  |
| NS(=O)(=O)OC[C@@H]1C[C@@H](n2nnc3c(N[C@H]4CC5(CCN(C(=O)O[C@@H]6CCOC6)CC5)c5ccccc54)ncnc32)C[C@@H]1O | 0.57 | 110 |  |
| NS(=O)(=O)OC[C@@H]1C[C@@H](n2nnc3c(NCc4ccccc4F)ncnc32)C[C@@H]1O | 6.11 | 3860 |  |
| NS(=O)(=O)OC[C@@H]1C[C@@H](Nc2ncnc(N[C@H]3CCc4ccccc43)c2F)C[C@@H]1O | 219 |  |  |
| NS(=O)(=O)OC[C@@H]1C[C@@H](n2nnc3c(NCc4ccco4)ncnc32)C[C@@H]1O | 30.6 |  |  |
| NS(=O)(=O)OC[C@@H]1C[C@@H](n2nnc3c(N[C@H]4CC5(CCNCC5)c5ccccc54)ncnc32)C[C@@H]1O | 66.9 |  |  |
| CN(C)[C@H]1Cc2ccccc2[C@H]1Nc1ncnc2c1nnn2[C@@H]1C[C@@H](COS(N)(=O)=O)[C@@H](O)C1 | 207 |  |  |
| NS(=O)(=O)OC[C@@H]1C[C@@H](n2nnc3c(NCCCc4ccccc4)ncnc32)C[C@@H]1O | 149 |  |  |
| NS(=O)(=O)OC[C@@H]1C[C@@H](n2nnc3c(NCCc4ccccc4)ncnc32)C[C@@H]1O | 81.8 |  |  |
| NS(=O)(=O)OC[C@@H]1C[C@@H](n2nnc3c(NC4CCCC4)ncnc32)C[C@@H]1O | > 10000 |  |  |
